Holding throughout (assay): KinomeScan kinase panel, single concentration 10 µM
Holding throughout (format): binding

Experiment [1] deals with T1, KinomeScan kinase panel (Homo sapiens, UniProt Q9Y616).
T1 construct: purchased DiscoveRx (KinomeScan)
T1 sequence (Q9Y616 1-596): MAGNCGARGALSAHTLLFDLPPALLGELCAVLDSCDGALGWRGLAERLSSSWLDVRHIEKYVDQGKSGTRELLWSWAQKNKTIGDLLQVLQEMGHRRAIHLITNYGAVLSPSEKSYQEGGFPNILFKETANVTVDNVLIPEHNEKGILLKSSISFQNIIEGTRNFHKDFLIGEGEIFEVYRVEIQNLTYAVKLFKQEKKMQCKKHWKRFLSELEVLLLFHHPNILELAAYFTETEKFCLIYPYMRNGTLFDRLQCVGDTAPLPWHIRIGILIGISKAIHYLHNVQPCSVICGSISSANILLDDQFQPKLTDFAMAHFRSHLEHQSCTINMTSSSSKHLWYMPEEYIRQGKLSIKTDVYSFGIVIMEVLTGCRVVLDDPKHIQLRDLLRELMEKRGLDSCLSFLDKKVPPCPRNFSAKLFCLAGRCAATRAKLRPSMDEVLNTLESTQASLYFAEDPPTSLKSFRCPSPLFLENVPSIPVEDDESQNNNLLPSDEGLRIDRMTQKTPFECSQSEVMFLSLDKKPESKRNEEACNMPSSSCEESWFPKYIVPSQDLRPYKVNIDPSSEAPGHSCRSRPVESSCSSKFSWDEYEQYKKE
The conditions noted are these: IRAK3, 10 µM; read-out: score (%).

Experiment [2] has as its target T2, KinomeScan kinase panel (Homo sapiens, UniProt Q99640).
T2 construct: purchased DiscoveRx (KinomeScan)
T2 sequence (Q99640 1-499): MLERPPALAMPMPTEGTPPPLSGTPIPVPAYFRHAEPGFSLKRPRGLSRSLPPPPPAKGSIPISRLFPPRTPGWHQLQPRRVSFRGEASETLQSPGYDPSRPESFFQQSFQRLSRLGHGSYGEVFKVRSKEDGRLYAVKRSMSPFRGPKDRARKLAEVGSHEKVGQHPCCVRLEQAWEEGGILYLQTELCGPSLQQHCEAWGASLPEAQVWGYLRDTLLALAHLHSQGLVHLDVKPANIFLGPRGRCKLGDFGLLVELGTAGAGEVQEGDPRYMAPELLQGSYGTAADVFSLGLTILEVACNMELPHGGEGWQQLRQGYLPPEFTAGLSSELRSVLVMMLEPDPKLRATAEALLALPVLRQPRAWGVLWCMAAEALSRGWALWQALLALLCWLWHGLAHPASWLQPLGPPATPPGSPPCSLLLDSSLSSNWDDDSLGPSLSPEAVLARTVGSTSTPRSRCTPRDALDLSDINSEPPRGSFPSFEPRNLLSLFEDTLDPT
Conditions: PKMYT1, 10 µM.

The target in experiment [3] is T3, KinomeScan kinase panel (Homo sapiens, UniProt P00519, E255K).
T3 construct: purchased DiscoveRx (KinomeScan)
T3 sequence (P00519 whole entry E255K): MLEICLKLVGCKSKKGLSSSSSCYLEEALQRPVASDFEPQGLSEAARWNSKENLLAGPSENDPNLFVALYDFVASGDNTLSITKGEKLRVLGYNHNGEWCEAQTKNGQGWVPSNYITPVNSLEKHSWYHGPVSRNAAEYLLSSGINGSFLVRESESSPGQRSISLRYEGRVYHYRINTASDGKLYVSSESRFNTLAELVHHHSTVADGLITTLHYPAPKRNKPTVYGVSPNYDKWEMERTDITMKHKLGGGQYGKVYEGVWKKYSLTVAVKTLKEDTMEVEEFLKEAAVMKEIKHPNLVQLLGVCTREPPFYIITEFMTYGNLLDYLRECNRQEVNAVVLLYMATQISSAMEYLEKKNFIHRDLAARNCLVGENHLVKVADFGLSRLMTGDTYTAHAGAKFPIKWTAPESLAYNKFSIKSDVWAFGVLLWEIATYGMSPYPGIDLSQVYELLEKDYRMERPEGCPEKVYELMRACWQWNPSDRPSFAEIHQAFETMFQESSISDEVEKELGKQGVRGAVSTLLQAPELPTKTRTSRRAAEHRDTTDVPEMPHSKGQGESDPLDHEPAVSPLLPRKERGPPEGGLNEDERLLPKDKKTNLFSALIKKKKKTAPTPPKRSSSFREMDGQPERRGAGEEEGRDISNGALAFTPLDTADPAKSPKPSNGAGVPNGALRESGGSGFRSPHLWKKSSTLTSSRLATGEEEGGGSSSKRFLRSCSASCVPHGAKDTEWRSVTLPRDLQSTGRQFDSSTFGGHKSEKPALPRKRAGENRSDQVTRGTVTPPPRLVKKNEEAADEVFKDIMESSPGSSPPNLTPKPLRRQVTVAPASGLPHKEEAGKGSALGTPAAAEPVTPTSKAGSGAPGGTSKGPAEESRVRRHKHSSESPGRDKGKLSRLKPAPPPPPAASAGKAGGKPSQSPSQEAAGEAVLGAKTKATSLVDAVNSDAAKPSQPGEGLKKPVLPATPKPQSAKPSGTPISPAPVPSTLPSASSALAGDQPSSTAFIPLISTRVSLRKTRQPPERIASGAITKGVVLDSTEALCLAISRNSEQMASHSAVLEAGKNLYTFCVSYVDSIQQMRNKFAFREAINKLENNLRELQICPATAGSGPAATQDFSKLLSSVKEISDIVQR
Conditions: 10 µM, read-out: score (%).

In experiment [4] the target is T4, KinomeScan kinase panel (Homo sapiens, UniProt Q9Y6R4).
T4 construct: purchased DiscoveRx (KinomeScan)
The conditions noted are these: MAP3K4, 10 µM; read-out: score (%).

The target of experiment [5] is T5, KinomeScan kinase panel (Homo sapiens, UniProt P08069).
T5 construct: purchased DiscoveRx (KinomeScan)
T5 sequence (P08069 31-1367): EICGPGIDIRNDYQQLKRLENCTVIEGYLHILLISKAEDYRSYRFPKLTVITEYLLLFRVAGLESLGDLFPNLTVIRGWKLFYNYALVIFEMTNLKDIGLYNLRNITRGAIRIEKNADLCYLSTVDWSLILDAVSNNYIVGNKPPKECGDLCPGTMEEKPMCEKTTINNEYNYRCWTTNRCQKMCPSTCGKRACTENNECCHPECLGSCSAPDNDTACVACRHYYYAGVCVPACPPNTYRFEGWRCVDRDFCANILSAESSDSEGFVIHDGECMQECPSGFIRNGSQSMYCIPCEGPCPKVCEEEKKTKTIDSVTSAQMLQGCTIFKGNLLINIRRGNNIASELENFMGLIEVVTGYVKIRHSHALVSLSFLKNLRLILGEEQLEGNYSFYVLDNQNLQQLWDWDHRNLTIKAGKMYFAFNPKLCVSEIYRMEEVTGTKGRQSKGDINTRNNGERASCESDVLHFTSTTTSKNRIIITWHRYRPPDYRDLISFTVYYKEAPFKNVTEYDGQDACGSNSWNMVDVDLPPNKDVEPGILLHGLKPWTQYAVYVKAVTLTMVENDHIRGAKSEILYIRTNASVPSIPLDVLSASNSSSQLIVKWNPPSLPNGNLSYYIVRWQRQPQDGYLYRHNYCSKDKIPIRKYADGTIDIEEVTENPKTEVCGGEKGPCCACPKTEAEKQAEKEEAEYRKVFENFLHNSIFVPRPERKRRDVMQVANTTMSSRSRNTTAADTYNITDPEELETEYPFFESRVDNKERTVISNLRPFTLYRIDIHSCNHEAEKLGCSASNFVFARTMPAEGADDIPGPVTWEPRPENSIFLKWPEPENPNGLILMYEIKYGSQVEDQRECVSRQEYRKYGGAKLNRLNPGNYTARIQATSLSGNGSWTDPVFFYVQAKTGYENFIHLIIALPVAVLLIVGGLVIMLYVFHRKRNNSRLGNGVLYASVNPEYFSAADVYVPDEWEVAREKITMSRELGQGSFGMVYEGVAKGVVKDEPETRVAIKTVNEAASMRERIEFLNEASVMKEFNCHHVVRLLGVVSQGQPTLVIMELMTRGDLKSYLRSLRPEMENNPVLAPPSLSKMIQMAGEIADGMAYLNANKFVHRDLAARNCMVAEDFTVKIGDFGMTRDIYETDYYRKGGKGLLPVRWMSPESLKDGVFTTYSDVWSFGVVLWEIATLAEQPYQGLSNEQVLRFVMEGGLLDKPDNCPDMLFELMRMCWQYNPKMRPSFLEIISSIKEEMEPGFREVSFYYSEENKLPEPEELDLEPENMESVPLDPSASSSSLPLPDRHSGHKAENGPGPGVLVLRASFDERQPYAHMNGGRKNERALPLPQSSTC
The conditions noted are these: IGF1R, 10 µM; read-out: score (%).

Experiment [6] concerns the target T6, KinomeScan kinase panel (Homo sapiens, UniProt P04629).
T6 construct: purchased DiscoveRx (KinomeScan)
Conditions: 10 µM, read-out: score (%).

In experiment [7] the target is T7, KinomeScan kinase panel (Homo sapiens, UniProt P35916).
T7 construct: purchased DiscoveRx (KinomeScan)
Conditions: FLT4, 10 µM; read-out: score (%).

For experiment [8], the target named is T8, KinomeScan kinase panel (Homo sapiens, UniProt O15075).
T8 construct: purchased DiscoveRx (KinomeScan)
T8 sequence (O15075 whole entry): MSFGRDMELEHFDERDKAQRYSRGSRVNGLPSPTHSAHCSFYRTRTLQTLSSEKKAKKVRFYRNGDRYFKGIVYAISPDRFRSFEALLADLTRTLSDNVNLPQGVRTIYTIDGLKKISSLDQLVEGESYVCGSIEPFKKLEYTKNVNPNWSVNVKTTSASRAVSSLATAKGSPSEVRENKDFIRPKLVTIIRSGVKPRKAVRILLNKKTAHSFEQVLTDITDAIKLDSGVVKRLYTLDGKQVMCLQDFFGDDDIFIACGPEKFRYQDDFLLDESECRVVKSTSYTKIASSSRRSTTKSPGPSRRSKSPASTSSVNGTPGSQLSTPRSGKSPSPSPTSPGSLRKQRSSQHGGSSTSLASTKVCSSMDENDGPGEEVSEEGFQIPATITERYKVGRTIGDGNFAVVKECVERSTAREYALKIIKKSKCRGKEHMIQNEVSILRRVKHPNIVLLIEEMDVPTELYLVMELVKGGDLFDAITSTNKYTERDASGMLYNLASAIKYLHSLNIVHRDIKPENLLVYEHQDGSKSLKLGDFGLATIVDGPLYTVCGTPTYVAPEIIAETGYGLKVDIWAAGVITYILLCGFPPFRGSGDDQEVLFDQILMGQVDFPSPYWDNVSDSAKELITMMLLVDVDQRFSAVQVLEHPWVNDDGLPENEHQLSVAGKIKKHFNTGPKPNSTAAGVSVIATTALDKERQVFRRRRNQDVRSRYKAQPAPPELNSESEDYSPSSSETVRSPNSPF
The conditions noted are these: DCAMKL1, 10 µM.

Experiment [9] addresses T9, KinomeScan kinase panel (Homo sapiens, UniProt Q8WXR4).
T9 construct: purchased DiscoveRx (KinomeScan)
T9 sequence (Q8WXR4 1-1341): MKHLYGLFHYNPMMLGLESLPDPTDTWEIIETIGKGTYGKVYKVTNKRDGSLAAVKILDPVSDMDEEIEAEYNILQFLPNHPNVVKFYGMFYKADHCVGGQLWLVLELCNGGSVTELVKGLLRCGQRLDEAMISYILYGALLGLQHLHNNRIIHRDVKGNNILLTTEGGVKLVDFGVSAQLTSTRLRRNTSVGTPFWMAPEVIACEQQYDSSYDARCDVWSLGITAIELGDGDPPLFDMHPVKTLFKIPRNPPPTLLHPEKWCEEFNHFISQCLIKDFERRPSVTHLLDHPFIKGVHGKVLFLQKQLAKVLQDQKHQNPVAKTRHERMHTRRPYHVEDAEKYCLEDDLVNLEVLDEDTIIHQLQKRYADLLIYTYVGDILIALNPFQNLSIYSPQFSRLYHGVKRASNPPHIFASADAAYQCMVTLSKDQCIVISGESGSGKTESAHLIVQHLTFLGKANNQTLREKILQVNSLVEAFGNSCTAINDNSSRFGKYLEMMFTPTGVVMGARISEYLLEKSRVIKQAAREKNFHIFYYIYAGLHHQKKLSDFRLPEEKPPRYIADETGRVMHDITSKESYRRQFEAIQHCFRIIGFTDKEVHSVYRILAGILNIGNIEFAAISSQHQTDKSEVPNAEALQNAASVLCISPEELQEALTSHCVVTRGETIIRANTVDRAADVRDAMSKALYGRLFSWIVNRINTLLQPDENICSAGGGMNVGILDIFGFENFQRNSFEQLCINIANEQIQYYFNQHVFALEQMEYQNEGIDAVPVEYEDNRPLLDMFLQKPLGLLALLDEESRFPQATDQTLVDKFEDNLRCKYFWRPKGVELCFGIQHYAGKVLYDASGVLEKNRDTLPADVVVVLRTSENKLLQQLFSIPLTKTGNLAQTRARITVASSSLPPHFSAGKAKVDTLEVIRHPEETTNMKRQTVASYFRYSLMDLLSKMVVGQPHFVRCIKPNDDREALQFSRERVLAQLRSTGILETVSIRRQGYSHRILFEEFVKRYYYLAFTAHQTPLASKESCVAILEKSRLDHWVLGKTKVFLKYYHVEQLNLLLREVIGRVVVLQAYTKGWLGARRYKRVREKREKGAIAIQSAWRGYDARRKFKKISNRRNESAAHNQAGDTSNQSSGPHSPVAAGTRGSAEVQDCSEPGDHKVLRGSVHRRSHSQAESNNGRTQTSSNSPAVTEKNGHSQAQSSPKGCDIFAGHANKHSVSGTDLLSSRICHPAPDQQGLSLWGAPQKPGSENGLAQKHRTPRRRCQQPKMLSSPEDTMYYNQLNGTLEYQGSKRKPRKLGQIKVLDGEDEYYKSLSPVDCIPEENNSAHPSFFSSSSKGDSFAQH
Conditions: MYO3B, 10 µM; read-out: score (%).

Read-outs that look alike come from different tables or passages of the source.

T6 sequence (P04629 33-796): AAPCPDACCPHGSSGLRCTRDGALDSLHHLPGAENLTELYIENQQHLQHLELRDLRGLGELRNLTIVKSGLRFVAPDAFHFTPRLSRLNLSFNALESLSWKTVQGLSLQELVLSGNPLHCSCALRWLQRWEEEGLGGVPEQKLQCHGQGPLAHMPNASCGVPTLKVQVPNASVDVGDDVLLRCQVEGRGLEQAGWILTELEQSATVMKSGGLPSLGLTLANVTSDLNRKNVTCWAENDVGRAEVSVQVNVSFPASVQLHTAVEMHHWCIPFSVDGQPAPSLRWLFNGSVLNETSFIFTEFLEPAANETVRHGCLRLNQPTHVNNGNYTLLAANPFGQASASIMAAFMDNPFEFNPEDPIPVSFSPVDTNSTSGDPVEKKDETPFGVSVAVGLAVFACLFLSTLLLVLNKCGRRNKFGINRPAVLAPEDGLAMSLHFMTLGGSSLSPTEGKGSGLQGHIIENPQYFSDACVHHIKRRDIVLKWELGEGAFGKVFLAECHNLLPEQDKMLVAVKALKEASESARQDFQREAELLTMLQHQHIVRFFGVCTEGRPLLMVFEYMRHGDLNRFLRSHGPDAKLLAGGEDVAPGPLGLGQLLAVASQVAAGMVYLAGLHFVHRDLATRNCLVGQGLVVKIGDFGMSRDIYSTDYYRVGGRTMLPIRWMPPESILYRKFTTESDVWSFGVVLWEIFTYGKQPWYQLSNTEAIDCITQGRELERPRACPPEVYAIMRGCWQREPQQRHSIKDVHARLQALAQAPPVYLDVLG

For the compound `CCN1CCN(Cc2ccc(NC(=O)c3ccc(C)c(NC(=O)c4cncc(-c5cccs5)c4)c3)cc2C(F)(F)F)CC1` [ALW-II-41-27], the remaining binding at 10 µM in experiment [1] was greater than 30%; in [3] (ABL1(E255K)), 7.2%; in [4], greater than 30%; in experiment [5], greater than 30%; in [6] (kinase TRKA), 4.4%; in experiment [7] it was 0%. Further, the remaining binding at 10 µM in [9] is greater than 30%. The “score (%)” value in experiment [2] and in experiment [8] was “nb (Hits values higher than 30% were considered negative (no binding: nb))” each time.

As for `CCN1CCN(Cc2ccc(NC(=O)c3ccc(C)c(/C=C/c4cnc5[nH]ccc5c4Cl)c3)cc2C(F)(F)F)CC1` [HG-6-63-01, (E)-3-(2-(4-chloro-1H-pyrrolo[2,3-b]pyridin-5-yl)vinyl)-N-(4-((4-ethylpiperazin-1-yl)methyl)-3-(trifluoromethyl)phenyl)-4-methylbenzamide], the remaining binding at 10 µM was greater than 30% in experiment [1]; 1.3% in [3] (ABL1(E255K)); greater than 30% in experiment [4]; greater than 30% in experiment [5]; 8.2% in [6] (TRKA); 0.15% in experiment [7]. Besides, the remaining binding at 10 µM in experiment [9] amounted to 30%. In addition, the “score (%)” value in experiment [2] and in experiment [8] was “nb (Hits values higher than 30% were considered negative (no binding: nb))” each time.

In the case of `CCN1CCN(Cc2ccc(NC(=O)c3ccc(C)c(C#Cc4cccnc4)c3)cc2C(F)(F)F)CC1` [XMD15-44], the remaining binding at 10 µM in experiment [1] was greater than 30%; in experiment [3] (ABL1(E255K)-phosphorylated), 0.05%; in experiment [4], greater than 30%; in experiment [5], greater than 30%; in [6] (kinase TRKA), 0.35%; in experiment [7], 0%. Also, in experiment [9], the remaining binding at 10 µM turned out to be 0%. The “score (%)” value in experiment [2] is 85%; in [8], “nb (Hits values higher than 30% were considered negative (no binding: nb))”.
